Test system: upper airway collapsibility
Test: pig model of obstructive sleep apnea (OSA): collapse of the upper respiratory tract induced by negative pressure in anaesthetized, spontaneously breathing pigs
Type: in vivo, German Landrace pigs
Conditions: for effect on upper airway collapsibility: all negative pressures of −50, −100 and −150 cm H2O
Text: The therapeutic potential of the combination of an α2-Adrenoceptor subtype C (alpha-2C) antagonists with a TASK1/3 channel blocker according to the present invention in sleep apnea has been assessed preclinically in a pig model of obstructive sleep apnea (OSA).
Using negative pressure. it is possible to induce collapse and thus obstruction of the upper respiratory tract in anaesthetized, spontaneously breathing pigs (Wirth K. J. et al., Sleep 36(5) (2013) pp. 699-708).
German Landrace pigs are used for the model. The pigs are anaesthetized and tracheotomized. Two tracheal cannulas are inserted into the trachea, one into the rostral part and the other into the caudal part of the trachea. Using a connection piece. the rostral cannula is connected to a tube to the negative pressure device and to the distal tracheal cannula. The distal tracheal cannula is additionally connected to a tube with an open end to atmosphere via a connection piece that served for free tracheal breathing, circumventing the upper airway. By appropriate opening and clamping of those tubes breathing can be switched from nasal breathing to breathing through the caudal tracheal cannula, circumventing the upper airway. and the (isolated) upper airway can be connected to the negative pressure device, causing airflow in the inspiratory direction.
At certain points in time. the collapsibility of the upper respiratory tract is tested by having the pig breathe via the caudal cannula and applying negative pressures of −50, −100 and −150 cm water head (cm H2O) to the upper respiratory tract. This causes the upper respiratory tract to collapse, which manifests itself in an interruption of the airflow and a pressure drop in the tube system. This test is conducted prior to the administration of the test substance and at certain intervals after the administration of the test substance. An appropriately effective test substance can prevent this collapse of the respiratory tract in the inspiratory phase.

[1] = time 60 min after intranasal administration of 0.3 μg, TASK1/3 blocker alone
[2] = time 0 min (time point of i.v. bolus/start of infusion of alpha-2C antagonist)
[3] = time 10 min after i.v. bolus and start of i.v. infusion 0.13 μg/kg/h of alpha-2C antagonist, before nasal TASK1/3 blocker
[4] = time 30 min after i.v. bolus and start of i.v. infusion 0.13 μg/kg/h of alpha-2C antagonist, before nasal TASK1/3 blocker
[5] = time 60 min after i.v. bolus and start of i.v. infusion 0.13 μg/kg/h of alpha-2C antagonist, before nasal TASK1/3 blocker
[6] = time 90 min after i.v. bolus and start of i.v. infusion 0.13 μg/kg/h of alpha-2C antagonist, before nasal TASK1/3 blocker
[7] = time 120 min after i.v. bolus and start of i.v. infusion 0.13 μg/kg/h of alpha-2C antagonist, before nasal TASK1/3 blocker
[8] = time 150 min after i.v. bolus and start of i.v. infusion 0.13 μg/kg/h of alpha-2C antagonist, before nasal TASK1/3 blocker

COc1cccc(C(=O)N2CCN(Cc3c(-c4ccc(Cl)cc4)nc4ccccn34)CC2)n1 [(4-{[2-(4-Chlorophenyl)imidazo[1,2-a]pyridin-3-yl]methyl}piperazin-1-yl)(6-methoxypyridin-2-yl)methanone]
0%: Percent pigs without collaps −50 cm H2O [1] | Percent pigs without collaps −100 cm H2O [1] | Percent pigs without collaps −150 cm H2O [1]
non effective dose: effectiveness of the dose on upper airway collapsibility (TASK1/TASK3 channel blocker alone, 0.3 μg)

COCc1cccnc1N1CCN(C[C@H]2COc3ccccc3O2)CC1 [(S)-1-((2,3-dihydrobenzo[b][1,4]dioxin-2-yl)methyl)-4-(3-(methoxymethyl)pyridin-2-yl)piperazine]
inhibited upper airway collapsibility: effect on upper airway collapsibility (i.v. bolus 0.3μg/kg + i.v. infusion 0.13 μg/kg/h for five hours, only at time point 30 min after bolus and start of infusion)
0%: Percent pigs without collaps −50 cm H2O [2] | Percent pigs without collaps −100 cm H2O [2] | Percent pigs without collaps −150 cm H2O [2] | Percent pigs without collaps −50 cm H2O [3] | Percent pigs without collaps −100 cm H2O [3] | Percent pigs without collaps −150 cm H2O [3] | Percent pigs without collaps −100 cm H2O [6] | Percent pigs without collaps −150 cm H2O [6] | Percent pigs without collaps −50 cm H2O [7] | Percent pigs without collaps −100 cm H2O [7] | Percent pigs without collaps −150 cm H2O [7] | Percent pigs without collaps −50 cm H2O [8] | Percent pigs without collaps −100 cm H2O [8] | Percent pigs without collaps −150 cm H2O [8]
upper airway collapsibility was induced: effect on upper airway collapsibility (i.v. bolus 0.3μg/kg + i.v. infusion 0.13 μg/kg/h, time point 120 min after bolus and start of infusion)
100%: Percent pigs without collaps −50 cm H2O [4] | Percent pigs without collaps −100 cm H2O [4] | Percent pigs without collaps −150 cm H2O [4] | Percent pigs without collaps −50 cm H2O [5] | Percent pigs without collaps −100 cm H2O [5]
non effective dose: effectiveness of the dose on upper airway collapsibility (alpha-2C antagonist alone, i.v. bolus 0.3μg/kg + i.v. infusion 0.13 μg/kg/h)
50%: Percent pigs without collaps −150 cm H2O [5] | Percent pigs without collaps −50 cm H2O [6]
